Reference: patent publication US20180104269A1, “COMPOSITION FOR SUPPRESSING MUSCULAR FATTY CHANGE” (SUNTORY HOLDINGS LIMITED, priority 2015, published 2018)

Key:
[1] = system: myosatellite cells derived from a rat; experiment: Oil red-O staining of oil droplets / count of adipocyte-like cells after adipogenic differentiation culture; format: cell-based
Text: (§1) The gastrocnemial muscle, the soleus, the anterior tibial muscle, the extensor digitorum longus muscle, and the quadriceps femoris muscle were extracted from the Fischer 344 rat of 10 to 14 weeks old under anesthesia, and minced. The above tissues were subjected to enzymolysis with Protease (Sigma-Aldrich) and subjected to centrifugal treatment to obtain a precipitate. The obtained precipitate was suspended in Dulbecco's Modified Eagle Medium (DMEM) containing 10% horse fetus serum, and seeded on an 8-well slide glass (BD Thermo Science) so that the myosatellite cells are 5×10^4 to 7×10^4 cells/mL.
(§2) Myosatellite cells isolated by F-10 containing 20% cow serum (GIBCO) was cultured for 72 h. Then, the cells were cultured for 72 h. in an adipogenic induction medium (Lonza) containing 0.1% DMSO (Control), 5 μM quercetin, 10 μM quercetin or 50 μM quercetin. Then, the cells were cultured for 72 h. in an adipogenic maintenance medium (Lonza) containing the control, 5 μM quercetin, 10 μM quercetin or 50 μM quercetin.
After the cultured cells were washed in PBS, they were fixed by 10% formalin (Wako Pure Chemical Industries, Ltd.) at room temperature for 10 min. Then, they were reacted with 10% oil red-O solution (Sigma Aldrich) that was dissolved in 2-propanol at room temperature for 30 min.

[2] = system: myosatellite cells derived from a rat; experiment: Quantification of amount of triglyceride in cells after adipogenic differentiation culture; format: cell-based; conditions: 5, 10, 50 μM vs 0 μM
Text: as §1, §2
After the cells that were subjected to adipogenic differentiation culture were washed with PBS, a PBS that contains 5% Triton-X 100 was added as a cell lysate, and the cell solution was collected, heated and cooled. After the cells were centrifuged, triglyceride and protein in the supernatant were quantified. The LabAssay™ Triglyceride (Wako Pure Chemical Industries, Ltd.) was used for the quantification of triglyceride. The Pierce BCA Protein Assay Kit (Thermo Scientific) was used for the quantification of protein. […] The results were tested using the Dunnett's test, and the value of 5% or lower was determined to be the significant amount (*: p<0.05 vs 0 μM. †: p<0.05 vs 5 μM).

[3] = cited from earlier work
PPARγ = biological target: T1, PPARγ (Homo sapiens, UniProt P37231); conditions: read-out: IC50 as PPARγ inhibitor; cited from earlier work
T1 sequence (P37231 1-505): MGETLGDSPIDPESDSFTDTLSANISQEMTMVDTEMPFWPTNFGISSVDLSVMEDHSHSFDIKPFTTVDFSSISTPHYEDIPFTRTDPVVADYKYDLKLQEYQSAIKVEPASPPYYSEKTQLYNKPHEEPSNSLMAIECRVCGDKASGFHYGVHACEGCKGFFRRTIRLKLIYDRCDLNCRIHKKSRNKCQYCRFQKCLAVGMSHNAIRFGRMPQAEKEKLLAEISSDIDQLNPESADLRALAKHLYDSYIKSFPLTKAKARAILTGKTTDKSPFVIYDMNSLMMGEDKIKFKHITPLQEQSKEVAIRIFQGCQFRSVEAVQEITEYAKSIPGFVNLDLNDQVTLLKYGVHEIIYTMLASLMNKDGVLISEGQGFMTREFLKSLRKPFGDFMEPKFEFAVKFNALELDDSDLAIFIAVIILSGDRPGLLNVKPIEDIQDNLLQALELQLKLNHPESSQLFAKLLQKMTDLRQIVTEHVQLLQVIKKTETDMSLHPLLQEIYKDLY

[4] = 5 μM, 72 h adipogenic induction medium then 72 h adipogenic maintenance medium, vs control (0.1% DMSO)
[5] = 10 μM, 72 h induction then 72 h maintenance medium
[6] = 50 μM, 72 h induction then 72 h maintenance medium

O=c1c(O)c(-c2ccc(O)c(O)c2)oc2cc(O)cc(O)c12 [quercetin]
number of adipocyte-like cells stained by oil red-O [1, 4]: no significant decrease | oil droplets stained by oil red-O [1, 4]: the same level of oil droplets as the control | number of adipocyte-like cells stained by oil red-O [1, 5]: decreased | number of oil droplets stained by oil red-O [1, 5]: decreased in a concentration dependent manner | number of adipocyte-like cells stained by oil red-O [1, 6]: decreased | number of oil droplets stained by oil red-O [1, 6]: decreased in a concentration dependent manner | amount of protein in the cells in the well [2]: did not change | amount of triglyceride corrected by the amount of protein [2]: decreased in a quercetin concentration dependent manner | amount of triglyceride in cells after adipogenic differentiation ([2]; Dunnett's test): decreased in a quercetin-concentration dependent manner | solubility in water [3]: insoluble to water

O=C(Nc1ccccc1)c1cc([N+](=O)[O-])ccc1Cl [GW9662, reference compound]
number of adipocyte-like cells stained by oil red-O ([1]; 1 μM, 72 h induction then 72 h maintenance medium): did not decrease | number of adipocyte-like cells stained by oil red-O [1, 4]: did not decrease | number of adipocyte-like cells stained by oil red-O [1, 5]: did not decrease | IC50 (PPARγ): 3.3 nM
